What was measured:
[1] = tested on: 4175-LuT exosome uptake in the lung; experiment: Peptide blocking of 4175-LuT exosome uptake in the lung; type: in vivo, mice; conditions: 0.06 μM peptide, 30 minutes at 37° C. prior to exosome injection
Protocol: FIGS. 6A-D show exosomal ITGβ4 expression functionally contributes to 4175-LuT exosome localization and mediates lung metastasis. FIG. 6A, left upper panels, show NIR whole lung imaging of 4175-LuT, 4175β4KD or 4175-LuT-derived exosomes pre-incubated with RGD or HYD-1 peptides. Scale bar, 5 mm. […] (n=4, except 4175 for which n=6). Error bars, ± s.e.m. *P<0.05; **P<0.01 by one-way ANOVA. The left lower panels show fluorescence microscopy. Arrows indicate exosome foci. Scale bar, 50 μm. […] Error bars, ±s.e.m. ***P<0.001 by one-way ANOVA. FIG. 6B, left panel, show NIR whole lung imaging of 1833-BoT (n=5) or 1833-BoT overexpressing (OE) ITGβ4 (n=4) exosomes. Scale bar, 5 mm. […] Bioluminescence imaging of lung metastasis and quantification of luciferase activity (n=6, data representative of 2 independent experiments) is shown. […]
To assess lung, liver and bone exosome distribution, exosomes were injected via the retro-orbital venous sinus, the tail vein or intracardially. […] An average of five random fields was counted per sample at 20× magnification and representative pictures were taken at 40× magnification. […] To measure exosome uptake by specific cell types, labelled exosomes were injected 24 hours prior to tissue collection and tissues were analysed for exosome-positive cells by immunofluorescence. […] Whole lung images were analysed by image J software, by red fluorescence area in arbitrary unit (a.u.).

[2] = tested on: WI-38 lung fibroblasts; experiment: In vitro uptake of 4175-LuT exosomes by WI-38 lung fibroblasts; type: cell-based, human; conditions: 10 μg/ml exosomes pre-incubated with peptide 30 minutes at 37° C., one hour with cells
Protocol: FIGS. 5A-M show ITGs functionally regulate organotropic exosome uptake and exosome-mediated metastasis. […] For western blot source data, see FIG. 9L. […] The WI-38 cell membrane was labelled with PKH67 dye and 4175-LuT exosomes were labelled with PKH26 dye. 10 μg/ml of exosomes were first incubated with PBS or HYD-1 peptide for 30 minutes at 37° C., followed by one hour incubation with WI-38 cells at 37° C. Excess exosomes were washed and cells were imaged (n=4 for two independent experiments); scale bar, 10 μm. […] For western blot source data, see FIG. 9M. […] Arrows indicate lung metastasis. Scale bar, 500 μm. […] For western blot source data, see FIG. 9N. […] An average of five random fields were counted at 20× magnification (data representative of 2 independent experiment n=3). […] Livers were harvested and analyzed for exosome positive cells by flow cytometry 24 hours post injection (n=4, except for the ITGαvβ5 antibody group, which n=5). […] Livers were digested and exosome-positive cells were quantified by flow cytometry (n=3). […] The lower panels show liver weight quantification (n=4 except for the control and peptide group for which n=3 of one experiment). […] Three days after cells were plated at equal density, cell numbers were counted using a hemocytometer (n=3 in 3 independent experiments). […]

**Q.** What does the source list for “KIKMVISWKG (Artificial Amino acid HYD-1 peptide)”?
**A.** 4175-LuT exosome uptake in the lung after pre-incubation with peptide [1]: dramatically reduced; uptake of 4175-LuT exosomes by WI-38 lung fibroblasts in vitro [2]: prevented
